{"source": "paper PMC4701221", "about": "“Novel Promising Estrogenic Receptor Modulators: Cytotoxic and Estrogenic Activity of Benzanilides and Dithiobenzanilides” (PLoS ONE, 2016)", "key": {"[1]": {"system": "ERα W383S transfected HEK293 cells", "experiment": "MTT cell viability, ERα W383S transfected HEK293 cells", "format": "cell-based, human", "conditions": "0–100 μM, 72 h, compared to wild type ERα, Fig 6B", "experimental": "(§1) Compounds were dissolved in DMSO to the final concentration of 100 μM. A549, CCD39Lu, MCF-7, MDA-MB-231 and MCF-12A cells were seeded in 96 wells plates at density 2x10^4 cells/well and incubated overnight as described above. Subsequently, cells were treated with tested compounds at concentrations: 100 μM; 50 μM; 25μM; 12.5μM; 6 μM; 3 μM; 1.5 μM. […] Cells were incubated 72 h at 37°C in a humidified atmosphere containing 5% CO2 in the cell culture media appropriate for each cell line. Then, the medium was aspirated and 170 μl MTT solution (5mg/ml) was added to each well. Plates were incubated for 2 hours at 37°C, and then plates were centrifuged at 1200 rpm for 3 minutes. […] Absorbance at 570 nm (with reference wavelenght 650 nm) was measured using a plate reader (Biotek Instruments, Elx-800). Cell viability was calculated as a percentage relative to the control.\n(§2) Fig 6 Estrogenic and cytotoxic activity of tested compounds in HEK293 cells transfected with wild type ERα receptor or plasmids bearing mutated versions of ERα. […] Results are expressed as mean ± SEM (n = 8). * p < 0.05 was considered statistically significant. […] 48 h after transfection, cells were incubated in the presence of increasing concentrations of compounds 18 for 72 h and cell viability was measured by MTT assay. […]"}, "MCF-7 cells [2]": {"system": "MCF-7 cells", "experiment": "MTT assay, MCF-7", "format": "cell-based, human", "experimental": "(§3) The cell lines used in the cytotoxicity study, besides MCF-12A, were purchased from European Collection of Cell Culture (ECACC, Salisbury, UK): HEK293 (human embryonic kidney, ATTC no. CRL-1573), A549 (Human lung carcinoma, ECACC no. 86012804), CCD39Lu (Human lung fibroblasts, ECACC no. 90110512), MCF-7 (Human breast adenocarcinoma, ECACC no. 86012803) and MDA-MB-231 (Human breast adenocarcinoma ECACC no. 92020424). Cell lines were cultured in DMEM medium without phenol red and supplemented with 10% (v/v) FBS, 1% penicillin-streptomycin and 1% L-glutamine. MCF-12A (ATTC no. […]) was purchased from American Type Culture Collection (ATCC Manassas, VA 20110 USA). MCF-12A cells were kept in 1:1 mixture of Dulbecco’s modified Eagle’s medium and Ham’s F12 medium, 20 ng/ml human epidermal growth factor, 100 ng/ml cholera toxin, 0.01 mg/ml bovine insulin, 500 ng/ml hydrocortisone and 5% horse serum. All cell lines were cultured at 37°C, in a humidified atmosphere containing 5% CO2.\n(§4) Compounds were dissolved in DMSO to the final concentration of […]. A549, CCD39Lu, MCF-7, MDA-MB-231 and MCF-12A cells were seeded in 96 wells plates at density 2x10^4 cells/well and incubated overnight as described above. Subsequently, cells were treated with tested compounds at concentrations: 100 μM; 50 μM; 25μM; 12.5μM; 6 μM; 3 μM; 1.5 μM. […] Cells were incubated 72 h at 37°C in a humidified atmosphere containing 5% CO2 in the cell culture media appropriate for each cell line. Then, the medium was aspirated and 170 μl MTT solution (5mg/ml) was added to each well. Plates were incubated for 2 hours at 37°C, and then plates were centrifuged at 1200 rpm for 3 minutes. The formazan crystals were dissolved in 200 μl DMSO and plates were further agitated on a plate shaker at 300–500 rpm for 10 minutes. Absorbance at 570 nm (with reference wavelenght 650 nm) was measured using a plate reader (Biotek Instruments, Elx-800). Cell viability was calculated as a percentage relative to the control."}, "MTT assay, MCF-12A": {"experiment": "MTT assay, MCF-12A", "format": "cell-based", "conditions": "human, MCF-12A cells (non-tumorigenic breast epithelial), read-out: Cytotoxic activity IC50, MCF-12A", "experimental": "as §3, §4"}, "MCF-7 cells [3]": {"system": "MCF-7 cells", "experiment": "LDH release assay, MCF-7", "format": "cell-based, human", "conditions": "72 h, Fig 2", "experimental": "Cytotoxicity was evaluated by measuring the cell membrane permeability, using a LDH assay kit purchased from Cayman Chemical (Ann Arbor USA). The LDH assay was performed for MCF-7 and MDA-MB-231 cells (seeded at 2×10^4 density). As a positive control cell permeabilization with 1%Triton X-100 was used. The assay was performed 72h after start the incubation. Briefly, the plates were centrifuged at 400 ×g for 5 minutes, and 100 μL of supernatant were transferred from each well to the new 96-well plate and analyzed according to the manufacturer’s protocol. 100 μL of reaction mixture, containing lactic acid, NAD^+, tetrazolium salt and diaphorase, was added to each well. Plates were incubated on an orbital shaker for 30 minutes at room temperature and the absorbance at 490 nm was measured with a plate reader (Biotek Instruments, Elx-800). Results were expressed as a percentage of the total value of the positive control."}, "MDA-MB-231 cells": {"system": "MDA-MB-231 cells", "experiment": "Sulphorodamine B assay, MDA-MB-231", "format": "cell-based, human", "conditions": "72 h, Fig 2", "experimental": "(§5) In addition to the MTT assay, cell viability was measured by the Sulphorodamine B assay according to Vichai and Kirtikara. The MCF-7 and MDA-MB-23 cells were seeded and treated as for the MTT assay. After incubation the medium was removed and the cells were fixed with cold (4°C) trichloroacetic acid (final concentration 10%) for 1h. Than plates were washed 4 times with water and stained for 30 min, following by staining with sulforhodamine B (SRB) 0.4% in 1% acetic acid solution at room temperature for 20 min. After staining, the SRB solution was removed and the plates washed 5 times with 1% acetic acid dried. Bound SRB was solubilized with 200 μl 10 mM unbuffered Tris-base solution and plates were shaked for 10 min. The absorbance at 510 nm was measured using a plate reader (Biotek Instruments, Elx-800)."}, "MCF-7 cells [4]": {"system": "MCF-7 cells", "experiment": "Sulphorodamine B assay, MCF-7", "format": "cell-based, human", "conditions": "72 h, Fig 2", "experimental": "as §5"}, "HEK293 cells": {"system": "HEK293 cells", "experiment": "MTT cell viability, non-transfected (mock) HEK293 cells", "format": "cell-based, human", "conditions": "0–100 μM, 72 h, Fig 6B", "experimental": "as §1, §2"}, "[5]": {"system": "ERα transfected HEK293 cells", "experiment": "MTT cell viability, ERα transfected HEK293 cells", "format": "cell-based, human", "conditions": "0–100 μM, 72 h, Fig 6B", "experimental": "as §1, §2"}}, "note": "“Also recorded” adds a separate entry of the source.", "data": [{"smiles": "Fc1ccc(NC(=S)c2ccc(NC(=S)c3ccc(F)cc3)cc2)cc1", "note": "[Compound 18]", "values": [{"measurement": "Cell viability, ERα W383S transfected HEK293", "setting": "[1]", "result": "decrease was significantly smaller"}, {"measurement": "Activity in MTT assay (in words), MCF-7", "setting": "MCF-7 cells [2]; 72 h", "result": "significant activity; also recorded: strong effect"}, {"measurement": "IC50", "setting": "MCF-7 cells [2]; Homo sapiens, MCF7, 72 h, estrogen dependent breast adenocarcinoma, read-out: Cytotoxic activity IC50, MCF-7", "result": 5.07, "unit": "µM"}, {"measurement": "IC50 at 72 h", "setting": "MTT assay, MCF-12A", "result": 91.5, "unit": "µM"}, {"measurement": "LDH release, MCF-7", "setting": "MCF-7 cells [3]", "result": "relatively low increase"}, {"measurement": "Effect in SRB assay, MDA-MB-231", "setting": "MDA-MB-231 cells", "result": "non-significant effects"}, {"measurement": "Effect in SRB assay, MCF-7", "setting": "MCF-7 cells [4]", "result": "strong effect"}, {"measurement": "Cell viability, non-transfected HEK293", "setting": "HEK293 cells", "result": "moderate cell toxicity"}, {"measurement": "Cell viability, ERα transfected HEK293", "setting": "[5]", "result": "significantly decreased cell viability"}]}]}
